Assay results as given in patent publication US20120270819A1, “USE OF COMPOUNDS WITH SGLT-1/SGLT-2 INHIBITOR ACTIVITY FOR PRODUCING MEDICAMENTS FOR TREATMENT OF BONE DISEASE” (SANOFI, priority 2009, published 2012).

Tests used:
Format in all cases: in vivo, rat
[1] = system: female Sprague-Dawley mature and young adult rats; assay: Biomechanical testing: right femur 3-point bending; conditions: ex vivo; for Femur 3-point bending AUC / Femur 3-point bending Modulus / Femur 3-point bending Peak Load / Femur 3-point bending Stiffness / Femur 3-point bending Toughness / Femur 3-point bending Ultimate Stress: mean
Method: (§1) Biomechanical testing was performed using an 858 Mini Bionix Servohydraulic Test System, Model 242.03. All data was collected using TestWorks® version 3.8A for TestStar™ software, version 4.0C.
(§2) At necropsy, all specimens were cleaned of excess tissue (not scraped) and individually wrapped in gauze soaked with saline, covered with plastic film and placed in an appropriately labelled plastic bag. Bone samples were retained frozen (ca −20° C.) until subjected to the following biomechanical evaluations:
For 3-point bending, the right femur was cleaned of soft tissue, especially at the diaphysis in the area of the span.
The right femur was tested to failure in three-point bending to determine the material properties of femoral cortical bone. The marked point on the anterior side served as the upper loading point for each femur and the actuator was set at a rate of 1 mm/sec until failure occurred. Load and displacement data were collected. Peak load was determined from the resulting load versus displacement curve and converted to ultimate stress using the radius, cross-sectional moment of inertia and the span. The work to failure was determined from the area under the curve (AUC) and toughness was calculated. Approximate midspan values for stiffness were recorded (defined as the slope of the linear/elastic region of the load versus displacement curve) and modulus was calculated using the moment of inertia obtained from the pQCT data.

[2] = system: female Sprague-Dawley mature and young adult rats; assay: Animal study of bone quality, daily oral gavage for a minimum of 28 days (overall findings, histopathology)
Method: The following were evaluated: clinical signs (at least weekly), body weight (weekly), food consumption (weekly), hormones (Days 13 and 27), serum and urinary biochemical markers of bone turnover (Days 13 and 27), serum chemistry (at necropsy), bone densitometry by dual energy X-ray absorptiometry (DXA) and peripheral quantitative computed tomography (pQCT) (Week 2 and 4, as well as ex vivo), macroscopic observations at necropsy, organ weights, histopathology, biomechanical strength testing and femoral length measurements.

[3] = system: female Sprague-Dawley mature and young adult rats; assay: Biomechanical testing: L3, L4 vertebral compression; conditions: for AUC (work to failure), percent difference from Vehicle Control / Apparent Strength, percent difference from Vehicle Control / Modulus, percent difference from Vehicle Control / Peak Load, percent difference from Vehicle Control / Stiffness, percent difference from Vehicle Control / Toughness, percent difference from Vehicle Control / Yield Load, percent difference from Vehicle Control / Yield Stress, percent difference from Vehicle Control / AUC (work to failure) / Apparent Strength / Modulus / Peak Load / Stiffness / Toughness / Yield Load / Yield Stress: L3 + L4 vertebral bodies; for AUC (work to failure) / Apparent Strength / Modulus / Peak Load / Stiffness / Toughness / Yield Load / Yield Stress: mean
Method: as §1, §2
For compression testing, the vertebral body of the vertebrae was isolated by removing the vertebral arch and removing both inter-vertebral discs. The section obtained had two parallel cut surfaces and the trabecular bone exposed.
The L3 and L4 vertebral body were tested in compression to failure. The loading rate was set at 20 mm/min. Load and displacement data were collected and apparent strength and modulus were calculated using the peak load, stiffness, individual vertebral body height and cross sectional area from the pQCT scans. The work to failure was determined from the area under the curve (AUC) and toughness was calculated. Yield load was originally derived using a 0.2% off-set however a 0.1% off-set was considered more appropriate and yield stress was calculated. All data derived from the 0.2% off-set yield load was kept with the study file but not reported.

Compound: COc1ccc(Cc2c(OC3OC(CO)C(F)C(O)C3O)n[nH]c2C(F)(F)F)cc1 (stereo not shown) [Example 5 of formula II]
- Femur 3-point bending AUC, percent difference from Vehicle Control ([1]; Mature Adults, 10 mg/kg/day): 13.4%
- Femur 3-point bending Modulus, percent difference from Vehicle Control ([1]; Mature Adults, 10 mg/kg/day): −0.2%
- Femur 3-point bending Peak Load, percent difference from Vehicle Control ([1]; Mature Adults, 10 mg/kg/day): 10.1%
- Femur 3-point bending Stiffness, percent difference from Vehicle Control ([1]; Mature Adults, 10 mg/kg/day): 1.3%
- Femur 3-point bending Toughness, percent difference from Vehicle Control ([1]; Mature Adults, 10 mg/kg/day): 10.5%
- Femur 3-point bending Ultimate Stress, percent difference from Vehicle Control ([1]; Mature Adults, 10 mg/kg/day): 6.1%
- Femur 3-point bending AUC ([1]; Mature Adults, 10 mg/kg/day): 64.1 N-mm
- Femur 3-point bending Modulus ([1]; Mature Adults, 10 mg/kg/day): 6137.7 MPa
- Femur 3-point bending Peak Load ([1]; Mature Adults, 10 mg/kg/day): 149.8 N
- Femur 3-point bending Stiffness ([1]; Mature Adults, 10 mg/kg/day): 410.2 N/mm
- Femur 3-point bending Toughness ([1]; Mature Adults, 10 mg/kg/day): 7.8 MPa
- Femur 3-point bending Ultimate Stress ([1]; Mature Adults, 10 mg/kg/day): 200.5 MPa
- Femur 3-point bending AUC, percent difference from Vehicle Control ([1]; Mature Adults, 50 mg/kg/day): 8.7%
- Femur 3-point bending Modulus, percent difference from Vehicle Control ([1]; Mature Adults, 50 mg/kg/day): 1.2%
- Femur 3-point bending Peak Load, percent difference from Vehicle Control ([1]; Mature Adults, 50 mg/kg/day): 4.5%
- Femur 3-point bending Stiffness, percent difference from Vehicle Control ([1]; Mature Adults, 50 mg/kg/day): −0.9%
- Femur 3-point bending Toughness, percent difference from Vehicle Control ([1]; Mature Adults, 50 mg/kg/day): 6.6%
- Femur 3-point bending Ultimate Stress, percent difference from Vehicle Control ([1]; Mature Adults, 50 mg/kg/day): 3.4%
- Femur 3-point bending AUC ([1]; Mature Adults, 50 mg/kg/day): 61.4 N-mm
- Femur 3-point bending Modulus ([1]; Mature Adults, 50 mg/kg/day): 6222.5 MPa
- Femur 3-point bending Peak Load ([1]; Mature Adults, 50 mg/kg/day): 142.1 N
- Femur 3-point bending Stiffness ([1]; Mature Adults, 50 mg/kg/day): 401.4 N/mm
- Femur 3-point bending Toughness ([1]; Mature Adults, 50 mg/kg/day): 7.5 MPa
- Femur 3-point bending Ultimate Stress ([1]; Mature Adults, 50 mg/kg/day): 195.4 MPa
- Femur 3-point bending AUC, percent difference from Vehicle Control ([1]; Young Adults, 10 mg/kg/day): 4.1%
- Femur 3-point bending Modulus, percent difference from Vehicle Control ([1]; Young Adults, 10 mg/kg/day): 2.1%
- Femur 3-point bending Peak Load, percent difference from Vehicle Control ([1]; Young Adults, 10 mg/kg/day): 0.9%
- Femur 3-point bending Stiffness, percent difference from Vehicle Control ([1]; Young Adults, 10 mg/kg/day): −0.4%
- Femur 3-point bending Toughness, percent difference from Vehicle Control ([1]; Young Adults, 10 mg/kg/day): 2.5%
- Femur 3-point bending Ultimate Stress, percent difference from Vehicle Control ([1]; Young Adults, 10 mg/kg/day): 1.3%
- Femur 3-point bending AUC ([1]; Young Adults, 10 mg/kg/day): 63.7 N-mm
- Femur 3-point bending Modulus ([1]; Young Adults, 10 mg/kg/day): 5154.1 MPa
- Femur 3-point bending Peak Load ([1]; Young Adults, 10 mg/kg/day): 97.9 N
- Femur 3-point bending Stiffness ([1]; Young Adults, 10 mg/kg/day): 277.3 N/mm
- Femur 3-point bending Toughness ([1]; Young Adults, 10 mg/kg/day): 8.7 MPa
- Femur 3-point bending Ultimate Stress ([1]; Young Adults, 10 mg/kg/day): 155.8 MPa
- Femur 3-point bending AUC, percent difference from Vehicle Control ([1]; Young Adults, 50 mg/kg/day): −19.9%
- Femur 3-point bending Modulus, percent difference from Vehicle Control ([1]; Young Adults, 50 mg/kg/day): 4.0%
- Femur 3-point bending Peak Load, percent difference from Vehicle Control ([1]; Young Adults, 50 mg/kg/day): −3.0%
- Femur 3-point bending Stiffness, percent difference from Vehicle Control ([1]; Young Adults, 50 mg/kg/day): 2.0%
- Femur 3-point bending Toughness, percent difference from Vehicle Control ([1]; Young Adults, 50 mg/kg/day): −19.2%
- Femur 3-point bending Ultimate Stress, percent difference from Vehicle Control ([1]; Young Adults, 50 mg/kg/day): −2.3%
- Femur 3-point bending AUC ([1]; Young Adults, 50 mg/kg/day): 49.0 N-mm
- Femur 3-point bending Modulus ([1]; Young Adults, 50 mg/kg/day): 5249.6 MPa
- Femur 3-point bending Peak Load ([1]; Young Adults, 50 mg/kg/day): 94.1 N
- Femur 3-point bending Stiffness ([1]; Young Adults, 50 mg/kg/day): 283.9 N/mm
- Femur 3-point bending Toughness ([1]; Young Adults, 50 mg/kg/day): 6.8 MPa
- Femur 3-point bending Ultimate Stress ([1]; Young Adults, 50 mg/kg/day): 150.2 MPa
- effects on bone mass and bone strength associated parameters ([2]; both dose levels (10, 50 mg/kg/day), both rat populations): positive effects
- trabecular bone noted histopathologically ([2]; young only): increase in trabecular bone
- Strength parameters at the lumbar spine ([3]; 50 mg/kg/day): positively affected
- AUC (work to failure), percent difference from Vehicle Control ([3]; mature adults, 10 mg/kg/day): 3.5%
- Apparent Strength, percent difference from Vehicle Control ([3]; mature adults, 10 mg/kg/day): 3.4%
- Modulus, percent difference from Vehicle Control ([3]; mature adults, 10 mg/kg/day): −2.0%
- Peak Load, percent difference from Vehicle Control ([3]; mature adults, 10 mg/kg/day): 6.0%
- Stiffness, percent difference from Vehicle Control ([3]; mature adults, 10 mg/kg/day): 0.9%
- Toughness, percent difference from Vehicle Control ([3]; mature adults, 10 mg/kg/day): 2.0%
- Yield Load, percent difference from Vehicle Control ([3]; mature adults, 10 mg/kg/day): 4.3%
- Yield Stress, percent difference from Vehicle Control ([3]; mature adults, 10 mg/kg/day): 2.1%
- AUC (work to failure) ([3]; mature adults, 10 mg/kg/day): 21.5 N-mm
- Apparent Strength ([3]; mature adults, 10 mg/kg/day): 48.3 MPa
- Modulus ([3]; mature adults, 10 mg/kg/day): 2102.6 MPa
- Peak Load ([3]; mature adults, 10 mg/kg/day): 375.5 N
- Stiffness ([3]; mature adults, 10 mg/kg/day): 5308.6 N/mm
- Toughness ([3]; mature adults, 10 mg/kg/day): 0.9 MPa
- Yield Load ([3]; mature adults, 10 mg/kg/day): 329.3 N
- Yield Stress ([3]; mature adults, 10 mg/kg/day): 42.5 MPa
- AUC (work to failure), percent difference from Vehicle Control ([3]; mature adults, 50 mg/kg/day): 22.1%
- Apparent Strength, percent difference from Vehicle Control ([3]; mature adults, 50 mg/kg/day): 14.1%
- Modulus, percent difference from Vehicle Control ([3]; mature adults, 50 mg/kg/day): 2.5%
- Peak Load, percent difference from Vehicle Control ([3]; mature adults, 50 mg/kg/day): 21.6%
- Stiffness, percent difference from Vehicle Control ([3]; mature adults, 50 mg/kg/day): 17.8%
- Toughness, percent difference from Vehicle Control ([3]; mature adults, 50 mg/kg/day): 20.6%
- Yield Load, percent difference from Vehicle Control ([3]; mature adults, 50 mg/kg/day): 16.6%
- Yield Stress, percent difference from Vehicle Control ([3]; mature adults, 50 mg/kg/day): 9.2%
- AUC (work to failure) ([3]; mature adults, 50 mg/kg/day): 25.4 N-mm
- Apparent Strength ([3]; mature adults, 50 mg/kg/day): 53.3 MPa
- Modulus ([3]; mature adults, 50 mg/kg/day): 2197.6 MPa
- Peak Load ([3]; mature adults, 50 mg/kg/day): 430.6 N
- Stiffness ([3]; mature adults, 50 mg/kg/day): 6194.6 N/mm
- Toughness ([3]; mature adults, 50 mg/kg/day): 1.1 MPa
- Yield Load ([3]; mature adults, 50 mg/kg/day): 368.0 N
- Yield Stress ([3]; mature adults, 50 mg/kg/day): 45.5 MPa
- AUC (work to failure), percent difference from Vehicle Control ([3]; young adults, 10 mg/kg/day): −9.8%
- Apparent Strength, percent difference from Vehicle Control ([3]; young adults, 10 mg/kg/day): 3.5%
- Modulus, percent difference from Vehicle Control ([3]; young adults, 10 mg/kg/day): 19.2%
- Peak Load, percent difference from Vehicle Control ([3]; young adults, 10 mg/kg/day): 5.2%
- Stiffness, percent difference from Vehicle Control ([3]; young adults, 10 mg/kg/day): 12.0%
- Toughness, percent difference from Vehicle Control ([3]; young adults, 10 mg/kg/day): −19.6%
- Yield Load, percent difference from Vehicle Control ([3]; young adults, 10 mg/kg/day): 8.3%
- Yield Stress, percent difference from Vehicle Control ([3]; young adults, 10 mg/kg/day): 6.1%
- AUC (work to failure) ([3]; young adults, 10 mg/kg/day): 14.4 N-mm
- Apparent Strength ([3]; young adults, 10 mg/kg/day): 34.4 MPa
- Modulus ([3]; young adults, 10 mg/kg/day): 1559.1 MPa
- Peak Load ([3]; young adults, 10 mg/kg/day): 255.9 N
- Stiffness ([3]; young adults, 10 mg/kg/day): 4009.8 N/mm
- Toughness ([3]; young adults, 10 mg/kg/day): 0.7 MPa
- Yield Load ([3]; young adults, 10 mg/kg/day): 222.5 N
- Yield Stress ([3]; young adults, 10 mg/kg/day): 29.9 MPa
- AUC (work to failure), percent difference from Vehicle Control ([3]; young adults, 50 mg/kg/day): 2.1%
- Apparent Strength, percent difference from Vehicle Control ([3]; young adults, 50 mg/kg/day): 16.4%
- Modulus, percent difference from Vehicle Control ([3]; young adults, 50 mg/kg/day): 23.3%
- Peak Load, percent difference from Vehicle Control ([3]; young adults, 50 mg/kg/day): 10.2%
- Stiffness, percent difference from Vehicle Control ([3]; young adults, 50 mg/kg/day): 10.3%
- Toughness, percent difference from Vehicle Control ([3]; young adults, 50 mg/kg/day): 1.5%
- Yield Load, percent difference from Vehicle Control ([3]; young adults, 50 mg/kg/day): 9.7%
- Yield Stress, percent difference from Vehicle Control ([3]; young adults, 50 mg/kg/day): 15.8%
- AUC (work to failure) ([3]; young adults, 50 mg/kg/day): 16.3 N-mm
- Apparent Strength ([3]; young adults, 50 mg/kg/day): 38.7 MPa
- Modulus ([3]; young adults, 50 mg/kg/day): 1613.3 MPa
- Peak Load ([3]; young adults, 50 mg/kg/day): 268.0 N
- Stiffness ([3]; young adults, 50 mg/kg/day): 3951.0 N/mm
- Toughness ([3]; young adults, 50 mg/kg/day): 0.9 MPa
- Yield Load ([3]; young adults, 50 mg/kg/day): 225.4 N
- Yield Stress ([3]; young adults, 50 mg/kg/day): 32.7 MPa
